Results taken from PMC11357404, “Cytotoxic and Anti-HSV-1 Effects of Caulerpin Derivatives” (Molecules, 2024).
“Also recorded” adds a separate entry of the source.

Columns and labels:
[1] = test system: Herpes simplex virus type 1 (HSV-1) in Vero cells; experiment: Antiviral screening, treatment concomitant to infection (MTT); assay type: cell-based; details: HSV-1 MOI 0.2, compound at CC20, 72 h; for inhibition of HSV-1-induced cytotoxicity (in words): versus untreated control or acyclovir
Protocol: (§1) The antiviral screening tests were performed following the method of Cheng et al., with modifications. For the anti-HSV-1 (herpes simplex virus type 1) activity of caulerpin analogs, Vero cells were used under the same conditions as described for the cytotoxicity test. The assay was divided into two steps:
Cells were infected with HSV-1 (MOI 0.2) and treated with the compound’s CC20 (concentration toxic to 20% of cells). The plates were incubated at 37 °C in 5% CO2 for 72 h, and cell viability was assessed using the MTT method.
(§2) In both assays, wells containing only cell medium were used as controls for cell growth. For positive control, wells containing medium and virus were used, and wells containing medium, virus, and acyclovir were used as a negative control.
(§3) The inhibition ratio was calculated using the following equation. % Inhibition=(OD treatment−OD positivecontrol)/(OD cell growth−OD positive control)×100 where OD = Optical density (absorbance).

cancer cell = test system: cancer cell; design: method as in PMID 25237346; details: caulerpin extracted from C. peltata; cited from earlier work
Chikungunya virus = details: cited from earlier work
[2] = test system: Herpes simplex virus type 1 (HSV-1) in Vero cells; experiment: Antiviral screening, post-infection treatment (MTT); assay type: cell-based; details: HSV-1 MOI 0.2 for 1 h, compound at CC20, 72 h, versus infected untreated control or acyclovir
Protocol: as §1
After removing the culture medium, the HSV-1 (MOI 0.2) was added to the wells containing cells for 1 h. After this time, the cells were washed, and the tested compounds and acyclovir were added to their CC20. The plates were incubated at 37 °C in 5% CO2 for 72 h and cell viability was assessed using the MTT method.
as §2, §3

Vero cells [3] = experiment: Cytotoxicity, MTT assay in Vero cells; assay type: cell-based, Cercopithecus aethiops; details: Chlorocebus sabaeus; Vero cells, MTT, 72 h, 200 to 1800 µM
Protocol: (§4) The method of Cheng et al. was followed with modifications to evaluate the cytotoxicity of caulerpin analogs 1, 2, 3, 4, 5, 7, 8, 9, 10, and 11 at concentrations ranging from 200 to 1800 µM. Vero cells (African green monkey kidney cells Cercopithecus aethiops; ATCC, Manassas, VA, USA) grown in Dulbecco’s modified medium (DMEM) supplemented with 5% fetal bovine serum (FBS), […], and 2.5 µg/mL gentamicin at 37 °C in 5% CO2 were used. Each test sample was diluted in DMEM containing 2% fetal bovine serum at six different concentrations. Vero cells were plated at a concentration of 2 × 10^4 cells/well and incubated for 24–36 h. […] After this time, the medium was discarded and 20 μL of MTT solution was added to each well. The plates were incubated for four hours at 37 °C. Subsequently, the supernatant was removed, and 150 μL of DMSO was added to each well to dissolve the formazan crystals. The plates were shaken for 10 min, followed by absorbance reading in an ELISA microplate reader at a wavelength of 540 nm.
(§5) The MTT assay was validated by constructing a trend line using linear regression in the GraphPad Prism Version 6.01 program. Assays that presented R^2 greater than 0.70 were considered appropriate. After the validation of the MTT assay, the CC50 and CC20 values of each tested analog were calculated.

[4] = Cytotoxicity, MTT assay in Vero cells; assay type: cell-based, Cercopithecus aethiops; details: African green monkey (Cercopithecus aethiops); for CC50 at 72 h: Absolute CC50, Vero cells, MTT; for viability at 72 h: Vero cells, cell viability curves (Figure 2), read-out: maximum percentage of cell viability
Protocol: as §4, §5

Vero cells [5] = test system: Vero cells; design: method as in doi:10.1590/S0102-695X2012005000072; details: cited from earlier work

SMILES | inhibition of HSV-1-induced cytotoxicity (in words) [2] | Emax (Vero cells [3]) [%] | CC50 at 72 h [4] [µM] | inhibition of HSV-1-induced cytotoxicity (in words) [1] | further results
Nc1nc2c(ncn2COCCO)c(=O)[nH]1 [Acyclovir, reference compound] |  |  |  |  | inhibition percentage of HSV-1-induced cytotoxicity ([1]; Vero cells): 52.79%
COC(=O)/C1=C/c2c([nH]c3ccccc23)/C(C(=O)OC)=C\c2c1[nH]c1ccccc21 [Analog 1, (6E,13E)-dimethyl-5,12-dihydrocycloocta[1,2b:5,6-b′]diindol-6,13-dicarboxylate] | higher percentages of cellular inhibition compared to the control group | 52.7 ± 1.8 | 688 ± 35.2 |  | inhibition of cancer cell growth (cancer cell): 12%; EC50 (Chikungunya virus; Chikungunya virus, read-out: EC50 inhibitory effect): 0.8 µM; inhibition of viral infectivity (virucidal activity) (Chikungunya virus; at 5 μM concentration): ~90%; CC50 (Vero cells [5]): 1180 µM
COC(=O)C1=Cc2c(n(C)c3ccccc23)C(C(=O)OC)=Cc2c1n(C)c1ccccc21 [Analog 2, (6E,13E)-Dimethyl-5,12-dimethyl-5,12 dihydrocycloocta[1,2 b: 5,6-b′]diindol-6,13-dicarboxylate] |  | 68.4 ± 0.2 | 524 ± 19.3 |  | viability at 72 h [4]: < 75%
CCn1c2c(c3ccccc31)C=C(C(=O)OC)c1c(c3ccccc3n1CC)C=C2C(=O)OC [Analog 3, (6E,13E)-Dimethyl-5,12-diethyl-5,12 dihydrocycloocta[1,2 b: 5,6-b′]diindole-6,13-dicarboxylate] | higher percentages of cellular inhibition compared to the control group | 51.5 ± 0.9 | 548 ± 38.8 | significant inhibition | 
C=CCn1c2c(c3ccccc31)C=C(C(=O)OC)c1c(c3ccccc3n1CC=C)C=C2C(=O)OC [Analog 4] |  | 70.1 ± 1.1 | 628 ± 69.8 |  | viability at 72 h [4]: < 75%
COC(=O)C1=Cc2c(n(Cc3ccccc3)c3ccccc23)C(C(=O)OC)=Cc2c1n(Cc1ccccc1)c1ccccc21 [Analog 6, (6E,13E)-Dimethyl-5,12-dinzyl 5,12-dihydrocycloocta[1,2b:5,6-b′]diindol-6,13-dicarboxylate] | higher percentages of cellular inhibition compared to the control group | 74.1 ± 1.8 | 891 ± 87.8 | significant inhibition | 
O=C(O)C1=Cc2c([nH]c3ccccc23)C(C(=O)O)=Cc2c1[nH]c1ccccc21 [Analog 9, (6E,13E)-5,12-Dihydrocycloocta[1,2b:5,6-b′]diindol-6,13-dicarboxylic acid] |  | 62.6 ± 0.7 | 1040 ± 62.4 |  | 
Cn1c2c(c3ccccc31)C=C(C(=O)O)c1c(c3ccccc3n1C)C=C2C(=O)O [Analog 10, (6E,13E)-5,12-Dimethyl-5-dihydrocycloocta[1,2b:5,6-b’]diindol-6,13-dicarboxylic acid] | higher percentages of cellular inhibition compared to the control group; also recorded: antiviral effects statistically similar to acyclovir | 71.8 ± 0.3 | 679 ± 38.3 |  | 
CCn1c2c(c3ccccc31)C=C(C(=O)O)c1c(c3ccccc3n1CC)C=C2C(=O)O [Analog 11, (6E,13E)-5,12-Diethyl-5,12-dihydrocycloocta[1,2b:5,6-b′]diindol-6,13-dicarboxylic acid] | higher percentages of cellular inhibition compared to the control group; also recorded: antiviral effects statistically similar to acyclovir | 62.7 ± 0.8 | 1000 ± 41.6 | significant inhibition; also recorded: efficacy similar to the antiviral agent acyclovir | 
C=CCn1c2c(c3ccccc31)C=C(C(=O)O)c1c(c3ccccc3n1CC=C)C=C2C(=O)O [Analog 12, (6E,13E)-5,12-Diallyl-5,12-dihydrocycloocta[1,2b:5,6-b′]diindol-6,13-dicarboxylic acid] | higher percentages of cellular inhibition compared to the control group | 44.5 ± 1.3 | 664 ± 55.3 | significant inhibition; also recorded: efficacy similar to the antiviral agent acyclovir | 
O=C(O)C1=Cc2c(n(Cc3ccccc3)c3ccccc23)C(C(=O)O)=Cc2c1n(Cc1ccccc1)c1ccccc21 [Analog 13, (6E,13E)-5,12-Dibenzyl-5,12-dihydrocycloocta[1,2 b: 5,6-b′]diindol-6,13-dicarboxylic acid] |  | 41 ± 1.2 | 494 ± 51.4 |  | 
